# Test results: paper PMC10360995, “Discovery of 3-((3-amino-1H-indazol-4-yl)ethynyl)-N-(4-((4-ethylpiperazin-1-yl)methyl)-3-(trifluoromethyl)phenyl)benzamide (AKE-72), a potent Pan-BCR-ABL inhibitor including the T315I gatekeeper resistant mutant” (Journal of Enzyme Inhibition and Medicinal Chemistry, 2023)
# Where two headings read alike, the source gives them in different places.
# Assays:
# HL-60(TB) [1] = test: cells; conditions: Homo sapiens
# CYP2D6 = target: T1, CYP2D6 (Homo sapiens, UniProt P10635); test: Cytochrome P450 inhibition assay (Vivid CYP450 kit); format: in vitro ADME
# T1 construct: purchased ThermoFisher (Vivid CYP450 screening kit), run at RBC
# From the text: (§1) Azole derivatives are well known for their ability to inhibit cytochrome P450 isozymes.
# (§2) 1.8. Cytochrome P450 Assay
# (§3) The binding site was defined based
# CYP3A4 = target: T2, CYP3A4 (Homo sapiens, UniProt P08684); test: as above; format: in vitro ADME; conditions: single-dose duplicate, read-out: CYP inhibition % CYP3A4
# T2 construct: purchased ThermoFisher (Vivid CYP450 screening kit), run at RBC
# From the text: as §1, §2, §3
# CYP1A2 = target: T3, CYP1A2 (Homo sapiens, UniProt P05177); test: as above; format: in vitro ADME
# T3 construct: purchased ThermoFisher (Vivid CYP450 screening kit), run at RBC
# From the text: as §1, §2, §3
# CYP2C9 = target: T4, CYP2C9 (Homo sapiens, UniProt P11712); test: as above; format: in vitro ADME; conditions: recombinant CYP2C9 (Vivid CYP450 screening kit), single-dose duplicate, read-out: CYP inhibition % CYP2C9
# T4 construct: purchased ThermoFisher (Vivid CYP450 screening kit), run at RBC
# From the text: as §1, §2, §3
# K-562 = test: NCI SRB anti-leukemic assay
# CCRF-CEM = test: NCI SRB anti-leukemic assay
# HL-60(TB) [2] = conditions: five-dose assay
# ABL^Q252H = ABL^Q252H (Homo sapiens, UniProt P00519, Q252H); test: ABL mutant enzymatic assay; format: biochemical; conditions: 10-dose, 3-fold dilution from 20 μM, 10 μM ATP
# From the text: (§4) Compound 5 (AKE-72) was further profiled against a number of clinically relevant ABL mutants, including E255K, F317I, H396P, M351T, and Q252H (Table 2). This outcome confirmed the ability of compound 5 to potently suppress the activity of the clinically relevant ABL mutants in single-digit nanomolar IC50 values.
# ABL^H396P = ABL^H396P (Homo sapiens, UniProt P00519, H396P); test: ABL mutant enzymatic assay; format: biochemical; conditions: 10-dose, 3-fold dilution from 20 μM, 10 μM ATP
# From the text: as §4
# ABL^F317I = ABL^F317I (Homo sapiens, UniProt P00519, F317I); test: ABL mutant enzymatic assay; format: biochemical; conditions: 10-dose, 3-fold dilution from 20 μM, 10 μM ATP
# From the text: as §4
# ABL^E255K = ABL^E255K (Homo sapiens, UniProt P00519, E255K); test: ABL mutant enzymatic assay; format: biochemical; conditions: 10-dose, 3-fold dilution from 20 μM, 10 μM ATP
# From the text: as §4
# ABL^M351T = ABL^M351T (Homo sapiens, UniProt P00519, M351T); test: ABL mutant enzymatic assay; format: biochemical; conditions: 10-dose, 3-fold dilution from 20 μM, 10 μM ATP
# From the text: as §4
# RPMI-8226 = test: NCI SRB anti-leukemic assay
# SR = test: NCI SRB anti-leukemic assay
# MOLT-4 = test: NCI SRB anti-leukemic assay
# Ba/F3 mouse pro-B cells = test: Cellular proliferation assay; format: cell-based; conditions: BaF3, read-out: GI50 Ba/F3 (mouse pro-B cell)
# From the text: (§5) We also tested AKE-72 against BCR-ABL-positive and BCR-ABL-negative cell lines.
# as §2, §3
# U937 (Bcr-Abl negative) = test: Cellular proliferation assay; format: cell-based; conditions: Homo sapiens, U-937, read-out: GI50 U937 (Bcr-Abl negative)
# From the text: as §5, §2, §3
# K562 (Bcr-Abl positive) = test: Cellular proliferation assay; format: cell-based; conditions: Homo sapiens, K562, read-out: GI50 K562 (Bcr-Abl positive)
# From the text: as §5, §2, §3
# FLT3 = FLT3 (Homo sapiens, UniProt P36888); test: Kinase panel profiling at 50 nM; format: biochemical; conditions: range given for ten kinases together
# Description: (§6) Figure 3. Enzyme inhibition percentage (relative to DMSO controls) of compound 5 (0.05 µM) against a panel of 18 kinases.
# LCK = LCK (Homo sapiens, UniProt P06239); test: Kinase panel profiling at 50 nM; format: biochemical; conditions: range given for ten kinases together
# Description: as §6
# YES = YES (Homo sapiens, UniProt P07947); test: Kinase panel profiling at 50 nM; format: biochemical; conditions: range given for ten kinases together
# Description: as §6
# c-Src = c-Src (Homo sapiens, UniProt P12931); test: Kinase panel profiling at 50 nM; format: biochemical; conditions: range printed for c-Src and FMS together
# Description: as §6
# FMS = FMS (Homo sapiens, UniProt P07333); test: Kinase panel profiling at 50 nM; format: biochemical; conditions: range printed for c-Src and FMS together
# Description: as §6
# FGFR1 = FGFR1 (Homo sapiens, UniProt P11362); test: Kinase panel profiling at 50 nM; format: biochemical; conditions: range given for ten kinases together
# Description: as §6
# [3] = system: the other investigated kinases (panel of 18 kinases); test: Kinase panel profiling at 50 nM; format: biochemical
# Description: as §6
# LYN = LYN (Homo sapiens, UniProt P07948); test: Kinase panel profiling at 50 nM; format: biochemical; conditions: range given for ten kinases together
# Description: as §6
# PDGFRβ = PDGFRβ (Homo sapiens, UniProt P09619); test: Kinase panel profiling at 50 nM; format: biochemical; conditions: range given for ten kinases together
# Description: as §6
# c-Kit = c-Kit (Homo sapiens, UniProt P10721); test: Kinase panel profiling at 50 nM; format: biochemical; conditions: range given for ten kinases together
# Description: as §6
# RET = RET (Homo sapiens, UniProt P07949); test: Kinase panel profiling at 50 nM; format: biochemical; conditions: range given for ten kinases together
# Description: as §6
# FYN = FYN (Homo sapiens, UniProt P06241); test: Kinase panel profiling at 50 nM; format: biochemical; conditions: range given for ten kinases together
# Description: as §6
# VEGFR2 = VEGFR2 (Homo sapiens, UniProt P35968); test: Kinase panel profiling at 50 nM; format: biochemical; conditions: range given for ten kinases together
# Description: as §6
# BCR-ABL^WT = BCR-ABL^WT (Homo sapiens, UniProt P00519); test: BCR-ABL WT kinase inhibition assay; format: biochemical
# T3 sequence (P05177 whole entry): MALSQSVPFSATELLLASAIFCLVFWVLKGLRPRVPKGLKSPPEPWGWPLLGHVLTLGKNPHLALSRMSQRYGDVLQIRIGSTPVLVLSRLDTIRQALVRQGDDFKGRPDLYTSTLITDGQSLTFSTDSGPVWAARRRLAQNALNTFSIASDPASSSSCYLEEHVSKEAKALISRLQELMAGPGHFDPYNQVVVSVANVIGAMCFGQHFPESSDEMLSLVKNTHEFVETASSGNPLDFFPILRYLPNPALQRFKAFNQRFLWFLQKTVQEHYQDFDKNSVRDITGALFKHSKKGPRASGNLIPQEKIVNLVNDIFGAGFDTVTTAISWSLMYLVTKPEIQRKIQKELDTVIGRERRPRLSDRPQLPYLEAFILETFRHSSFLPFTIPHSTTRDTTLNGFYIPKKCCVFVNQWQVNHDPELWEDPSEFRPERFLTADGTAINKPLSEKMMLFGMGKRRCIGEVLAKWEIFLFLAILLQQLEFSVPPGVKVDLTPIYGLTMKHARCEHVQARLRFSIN
# T1 sequence (P10635 whole entry): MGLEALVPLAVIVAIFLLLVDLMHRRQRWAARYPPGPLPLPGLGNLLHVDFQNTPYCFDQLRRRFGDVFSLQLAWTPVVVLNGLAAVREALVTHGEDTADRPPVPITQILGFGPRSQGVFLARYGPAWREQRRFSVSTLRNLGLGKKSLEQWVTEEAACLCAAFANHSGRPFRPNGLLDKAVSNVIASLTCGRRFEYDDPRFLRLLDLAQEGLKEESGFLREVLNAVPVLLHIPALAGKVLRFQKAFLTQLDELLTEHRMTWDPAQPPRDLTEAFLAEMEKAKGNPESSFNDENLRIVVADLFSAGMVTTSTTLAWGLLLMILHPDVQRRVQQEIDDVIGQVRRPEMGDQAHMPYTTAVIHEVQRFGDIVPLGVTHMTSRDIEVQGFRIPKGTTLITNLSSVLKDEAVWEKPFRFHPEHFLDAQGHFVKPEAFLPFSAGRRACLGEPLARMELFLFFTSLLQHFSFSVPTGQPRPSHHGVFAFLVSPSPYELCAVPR
# T2 sequence (P08684 whole entry): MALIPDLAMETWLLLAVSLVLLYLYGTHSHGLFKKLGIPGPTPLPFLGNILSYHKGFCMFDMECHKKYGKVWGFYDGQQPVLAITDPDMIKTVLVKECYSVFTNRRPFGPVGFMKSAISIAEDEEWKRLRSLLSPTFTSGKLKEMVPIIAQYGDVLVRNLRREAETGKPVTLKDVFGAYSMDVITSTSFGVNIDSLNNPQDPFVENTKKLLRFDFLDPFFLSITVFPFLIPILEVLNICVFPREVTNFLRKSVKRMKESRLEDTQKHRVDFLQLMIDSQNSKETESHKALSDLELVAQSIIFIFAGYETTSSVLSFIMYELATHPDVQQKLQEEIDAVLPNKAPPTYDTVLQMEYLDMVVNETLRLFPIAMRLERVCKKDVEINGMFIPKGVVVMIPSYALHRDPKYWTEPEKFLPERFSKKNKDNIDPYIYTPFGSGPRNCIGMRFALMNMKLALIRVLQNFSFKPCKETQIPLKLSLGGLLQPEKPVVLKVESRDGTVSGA
# FLT3, sequence (P36888 27-993): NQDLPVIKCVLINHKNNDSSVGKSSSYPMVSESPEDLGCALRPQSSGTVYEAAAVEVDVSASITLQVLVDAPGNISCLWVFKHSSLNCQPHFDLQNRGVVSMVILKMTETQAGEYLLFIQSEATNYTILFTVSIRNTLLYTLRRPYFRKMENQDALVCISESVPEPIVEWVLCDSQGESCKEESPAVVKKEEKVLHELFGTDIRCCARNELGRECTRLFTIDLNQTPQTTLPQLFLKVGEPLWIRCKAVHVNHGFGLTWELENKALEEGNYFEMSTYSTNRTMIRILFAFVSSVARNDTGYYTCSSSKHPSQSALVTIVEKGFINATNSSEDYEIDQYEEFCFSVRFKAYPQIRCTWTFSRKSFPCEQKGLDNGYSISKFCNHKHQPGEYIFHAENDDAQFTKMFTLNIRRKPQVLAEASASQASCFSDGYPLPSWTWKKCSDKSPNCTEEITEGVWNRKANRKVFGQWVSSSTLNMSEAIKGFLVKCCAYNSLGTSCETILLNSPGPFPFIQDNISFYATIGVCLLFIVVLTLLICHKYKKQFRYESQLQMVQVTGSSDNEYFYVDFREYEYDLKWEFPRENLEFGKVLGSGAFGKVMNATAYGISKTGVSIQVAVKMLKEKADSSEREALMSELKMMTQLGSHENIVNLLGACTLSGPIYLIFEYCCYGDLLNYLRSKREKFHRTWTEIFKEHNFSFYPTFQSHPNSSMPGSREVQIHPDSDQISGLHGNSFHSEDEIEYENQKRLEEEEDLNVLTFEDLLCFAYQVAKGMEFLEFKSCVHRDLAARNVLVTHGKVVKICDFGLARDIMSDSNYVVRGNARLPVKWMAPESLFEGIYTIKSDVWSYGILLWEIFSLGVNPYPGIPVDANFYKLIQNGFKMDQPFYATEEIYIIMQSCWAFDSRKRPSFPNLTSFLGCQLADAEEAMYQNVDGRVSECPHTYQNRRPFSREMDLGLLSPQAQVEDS
# VEGFR2, sequence (P35968 20-1356): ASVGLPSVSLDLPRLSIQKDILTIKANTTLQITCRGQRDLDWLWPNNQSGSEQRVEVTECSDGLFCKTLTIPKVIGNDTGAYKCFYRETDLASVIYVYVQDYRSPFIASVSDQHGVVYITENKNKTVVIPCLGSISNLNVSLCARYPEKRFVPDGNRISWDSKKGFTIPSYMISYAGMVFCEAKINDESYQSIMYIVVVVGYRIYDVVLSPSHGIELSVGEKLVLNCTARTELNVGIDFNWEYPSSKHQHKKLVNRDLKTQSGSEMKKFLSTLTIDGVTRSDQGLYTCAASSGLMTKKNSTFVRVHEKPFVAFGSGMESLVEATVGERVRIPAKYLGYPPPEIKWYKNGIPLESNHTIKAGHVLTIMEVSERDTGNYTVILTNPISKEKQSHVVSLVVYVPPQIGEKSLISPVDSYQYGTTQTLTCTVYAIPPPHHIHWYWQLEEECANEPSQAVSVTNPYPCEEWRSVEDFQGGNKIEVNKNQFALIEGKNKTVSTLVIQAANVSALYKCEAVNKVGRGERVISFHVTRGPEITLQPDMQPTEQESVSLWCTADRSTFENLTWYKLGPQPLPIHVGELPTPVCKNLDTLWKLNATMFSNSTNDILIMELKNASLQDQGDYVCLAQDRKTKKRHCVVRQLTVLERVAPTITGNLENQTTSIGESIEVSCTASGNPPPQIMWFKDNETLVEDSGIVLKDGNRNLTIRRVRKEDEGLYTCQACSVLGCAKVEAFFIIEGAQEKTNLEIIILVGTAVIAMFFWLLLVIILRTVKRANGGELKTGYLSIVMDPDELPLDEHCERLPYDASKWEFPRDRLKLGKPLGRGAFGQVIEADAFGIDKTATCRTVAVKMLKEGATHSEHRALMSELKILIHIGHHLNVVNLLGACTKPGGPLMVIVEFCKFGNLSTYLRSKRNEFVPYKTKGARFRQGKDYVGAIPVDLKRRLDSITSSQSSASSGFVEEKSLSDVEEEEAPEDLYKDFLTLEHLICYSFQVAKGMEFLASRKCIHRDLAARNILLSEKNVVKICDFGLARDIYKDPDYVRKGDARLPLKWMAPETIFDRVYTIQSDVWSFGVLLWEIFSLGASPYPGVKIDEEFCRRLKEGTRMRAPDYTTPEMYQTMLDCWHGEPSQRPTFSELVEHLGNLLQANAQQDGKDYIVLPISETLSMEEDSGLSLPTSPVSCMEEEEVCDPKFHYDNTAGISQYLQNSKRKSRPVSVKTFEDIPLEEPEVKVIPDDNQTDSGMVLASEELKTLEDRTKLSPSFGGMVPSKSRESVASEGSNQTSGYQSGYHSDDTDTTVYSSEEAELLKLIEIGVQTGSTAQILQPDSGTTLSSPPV
# FMS, sequence (P07333 20-972): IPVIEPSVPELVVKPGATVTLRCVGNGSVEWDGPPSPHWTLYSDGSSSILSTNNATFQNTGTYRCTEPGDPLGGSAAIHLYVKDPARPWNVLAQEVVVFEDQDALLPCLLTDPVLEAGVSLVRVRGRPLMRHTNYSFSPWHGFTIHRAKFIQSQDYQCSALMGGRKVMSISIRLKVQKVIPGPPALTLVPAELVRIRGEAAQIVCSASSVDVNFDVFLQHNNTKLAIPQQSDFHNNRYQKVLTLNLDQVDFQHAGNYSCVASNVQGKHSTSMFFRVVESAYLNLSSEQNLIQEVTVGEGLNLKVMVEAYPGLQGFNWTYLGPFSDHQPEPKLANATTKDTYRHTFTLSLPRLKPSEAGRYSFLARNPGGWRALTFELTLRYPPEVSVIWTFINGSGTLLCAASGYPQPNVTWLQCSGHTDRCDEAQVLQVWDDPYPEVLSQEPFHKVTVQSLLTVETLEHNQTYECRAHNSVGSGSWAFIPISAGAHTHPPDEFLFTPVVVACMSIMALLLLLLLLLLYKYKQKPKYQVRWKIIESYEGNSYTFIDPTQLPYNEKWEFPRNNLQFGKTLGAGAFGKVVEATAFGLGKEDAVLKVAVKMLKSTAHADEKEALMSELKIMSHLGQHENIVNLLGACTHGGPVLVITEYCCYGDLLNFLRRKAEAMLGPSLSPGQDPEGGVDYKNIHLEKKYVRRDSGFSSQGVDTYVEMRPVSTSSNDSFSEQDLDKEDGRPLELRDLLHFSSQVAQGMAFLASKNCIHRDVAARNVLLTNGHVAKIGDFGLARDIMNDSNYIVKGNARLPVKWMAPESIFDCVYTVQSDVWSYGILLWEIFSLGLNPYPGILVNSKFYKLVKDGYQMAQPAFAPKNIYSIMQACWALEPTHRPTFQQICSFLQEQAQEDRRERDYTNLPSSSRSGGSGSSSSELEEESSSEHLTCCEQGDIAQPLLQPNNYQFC
smiles,measurement,setting,value
"CCN1CCN(Cc2ccc(NC(=O)c3cccc(C#Cc4cccc5[nH]nc(N)c45)c3)cc2C(F)(F)F)CC1 [Compound 5, 3-((3-amino-1H-indazol-4-yl)ethynyl)-N-(4-((4-ethylpiperazin-1-yl)methyl)-3-(trifluoromethyl)phenyl)benzamide]",GI50,"HL-60(TB) [1]; HL-60, read-out: GI50 HL-60(TB)",97.9 nM
same,CC50,"HL-60(TB) [1]; HL-60, read-out: LC50 (half-maximal lethal concentration) HL-60(TB)",5170 nM
same,IC50,CYP2D6,> 10000 nM
same,inhibition at 10 µM,"CYP2D6; human, recombinant CYP2D6 (Vivid CYP450 screening kit), 10 µM, single-dose duplicate, read-out: CYP inhibition % CYP2D6",13.92 ± 0.06%
same,inhibition at 10 µM,CYP3A4; Vivid CYP450 screening kit (CYP3A4 isozyme),90.6%
same,inhibition at 10 µM,CYP3A4; recombinant CYP3A4 (Vivid CYP450 screening kit),96.57 ± 0.065%
same,IC50,CYP1A2,> 10000 nM
same,inhibition at 10 µM,"CYP1A2; human, recombinant CYP1A2 (Vivid CYP450 screening kit), 10 µM, single-dose duplicate, read-out: CYP inhibition % CYP1A2",9.88 ± 0.09%
same,inhibition at 10 µM,CYP2C9,50.67 ± 0.075%
same,GI50,"K-562; Homo sapiens, K562, read-out: GI50 K-562",< 10 nM
same,CC50,"K-562; Homo sapiens, K562, read-out: LC50 (half-maximal lethal concentration) K-562",5250 nM
same,TGI (total growth inhibition) K-562,K-562; five-dose assay,154 nM
same,TGI K-562,K-562; five-dose assay,154 nM
same,GI50,"CCRF-CEM; Homo sapiens, CCRF-CEM, read-out: GI50 CCRF-CEM",436 nM
same,CC50,"CCRF-CEM; Homo sapiens, CCRF-CEM, read-out: LC50 (half-maximal lethal concentration) CCRF-CEM",> 100000 nM
same,TGI (total growth inhibition) CCRF-CEM,CCRF-CEM; five-dose assay,3040 nM
same,TGI (total growth inhibition) HL-60(TB),HL-60(TB) [2],1040 nM
same,IC50,ABL^Q252H,3.88 nM
same,IC50,ABL^H396P,< 1.02 nM
same,IC50,ABL^F317I,3.12 nM
same,IC50,ABL^E255K,8.98 nM
same,IC50,ABL^M351T,3.44 nM
same,GI50,"RPMI-8226; Homo sapiens, RPMI-8226, read-out: GI50 RPMI-8226",488 nM
same,CC50,"RPMI-8226; Homo sapiens, RPMI-8226, read-out: LC50 (half-maximal lethal concentration) RPMI-8226",> 100000 nM
same,TGI (total growth inhibition) RPMI-8226,RPMI-8226; five-dose assay,2660 nM
same,GI50,"SR; Homo sapiens, SR, read-out: GI50 SR",238 nM
same,CC50,"SR; Homo sapiens, SR, read-out: LC50 (half-maximal lethal concentration) SR",> 100000 nM
same,TGI (total growth inhibition) SR,SR; five-dose assay,732 nM
same,GI50,"MOLT-4; Homo sapiens, MOLT-4, read-out: GI50 MOLT-4",227 nM
same,CC50,"MOLT-4; Homo sapiens, MOLT-4, read-out: LC50 (half-maximal lethal concentration) MOLT-4",5130 nM
same,TGI (total growth inhibition) MOLT-4,MOLT-4; five-dose assay,1160 nM
same,GI50,Ba/F3 mouse pro-B cells,4000 ± 1170 nM
same,GI50,U937 (Bcr-Abl negative),1900 ± 61 nM
same,GI50,K562 (Bcr-Abl positive),5.9 nM
same,inhibition at 0.05 µM,FLT3,83.9 to 99.3%
same,inhibition at 0.05 µM,LCK,83.9 to 99.3%
same,inhibition at 0.05 µM,YES,83.9 to 99.3%
same,inhibition at 0.05 µM,c-Src,64.5 to 73%
same,inhibition at 0.05 µM,FMS,64.5 to 73%
same,inhibition at 0.05 µM,FGFR1,83.9 to 99.3%
same,inhibition of the other investigated kinases,[3],no inhibition
same,inhibition at 0.05 µM,LYN,83.9 to 99.3%
same,inhibition at 0.05 µM,PDGFRβ,83.9 to 99.3%
same,inhibition at 0.05 µM,c-Kit,83.9 to 99.3%
same,inhibition at 0.05 µM,RET,83.9 to 99.3%
same,inhibition at 0.05 µM,FYN,83.9 to 99.3%
same,inhibition at 0.05 µM,VEGFR2,83.9 to 99.3%
same,IC50,"BCR-ABL^WT; 10-dose duplicate, 3-fold serial dilution, 10 µM ATP",< 0.51 nM
same,fold superior potency against BCR-ABL^WT versus lead indazole II,BCR-ABL^WT; relative to II,> 300 folds
